In brackets after ≈: the same amount, converted by molar mass.
Tests used:
Format in all cases: functional
Staphylococcus aureus [1] = assay: Antibacterial activity against methicillin-resistant Staphylococcus aureus NRS384 measured by liquid dilution method
Staphylococcus aureus [2] = assay: Antibacterial activity against Staphylococcus aureus ATCC 29213 measured by liquid dilution method
Escherichia coli = assay: Antibacterial activity against Escherichia coli ATCC 25922 measured by liquid dilution method

## CC(c1c[nH]c2ccccc12)C1OC(N)=NC1=O (racemic)
Staphylococcus aureus [1]
  MIC: > 128 µg/mL
Staphylococcus aureus [2]
  MIC: 8 µg/mL (≈ 32.9 µM)
Escherichia coli
  MIC: > 128 µg/mL

## CNC1=NC(=O)C(C(C)c2c[nH]c3cccc(F)c23)O1 (racemic)
Staphylococcus aureus [1]
  MIC: 1 µg/mL (≈ 3.63 µM)
Staphylococcus aureus [2]
  MIC: 1 µg/mL (≈ 3.63 µM)
Escherichia coli
  MIC: 4 µg/mL (≈ 14.5 µM)

## CNC1=NC(=O)C(C(C)c2c[nH]c3cc(C)ccc23)O1 (racemic)
Staphylococcus aureus [1]
  MIC: 8 µg/mL (≈ 29.5 µM)
Staphylococcus aureus [2]
  MIC: > 128 µg/mL
Escherichia coli
  MIC: 16 µg/mL (≈ 59 µM)

## CNC1=NC(=O)C(C(C)c2c[nH]c3cccc(N4CCCCC4)c23)O1 (racemic)
Staphylococcus aureus [1]
  MIC: > 128 µg/mL
Staphylococcus aureus [2]
  MIC: 64 µg/mL (≈ 188 µM)
Escherichia coli
  MIC: > 128 µg/mL

## CNC1=NC(=O)C(C(C)c2c[nH]c3cccc(Br)c23)O1 (racemic)
Staphylococcus aureus [1]
  MIC: > 128 µg/mL
Staphylococcus aureus [2]
  MIC: 4 µg/mL (≈ 11.9 µM)
Escherichia coli
  MIC: > 128 µg/mL

## CC(c1c[nH]c2ccccc12)C1SC(N)=NC1=O (racemic)
Staphylococcus aureus [1]
  MIC: > 128 µg/mL
Staphylococcus aureus [2]
  MIC: 8 µg/mL (≈ 30.8 µM)
Escherichia coli
  MIC: > 128 µg/mL

## CNC1=NC(=O)C(C(C)c2c[nH]c3cccc(Cl)c23)S1 (racemic)
Staphylococcus aureus [1]
  MIC: > 128 µg/mL
Staphylococcus aureus [2]
  MIC: 8 µg/mL (≈ 26 µM)
Escherichia coli
  MIC: > 128 µg/mL

## CNC1=NC(=O)C(C(C)c2c[nH]c3c(Br)cccc23)O1 (racemic)
Staphylococcus aureus [1]
  MIC: > 128 µg/mL
Staphylococcus aureus [2]
  MIC: > 128 µg/mL
Escherichia coli
  MIC: > 128 µg/mL

## CNC1=NC(=O)C(C(C)c2c[nH]c3cc(Br)ccc23)O1 (racemic)
Staphylococcus aureus [1]
  MIC: 16 µg/mL (≈ 47.6 µM)
Staphylococcus aureus [2]
  MIC: > 128 µg/mL
Escherichia coli
  MIC: 4 µg/mL (≈ 11.9 µM)

## CNC1=NC(=O)C(C(C)c2c[nH]c3c(F)cccc23)O1 (racemic)
Staphylococcus aureus [1]
  MIC: 8 µg/mL (≈ 29.1 µM)
Staphylococcus aureus [2]
  MIC: 8 µg/mL (≈ 29.1 µM)
Escherichia coli
  MIC: 16 µg/mL (≈ 58.1 µM)

## CC(c1c[nH]c2cccc(F)c12)C1SC(N)=NC1=O (racemic)
Staphylococcus aureus [1]
  MIC: > 128 µg/mL
Staphylococcus aureus [2]
  MIC: 16 µg/mL (≈ 57.7 µM)
Escherichia coli
  MIC: > 128 µg/mL

## CNC1=NC(=O)C(C(C)c2c[nH]c3cccc(Cl)c23)O1 (racemic)
Staphylococcus aureus [1]
  MIC: 2 µg/mL (≈ 6.86 µM)
Staphylococcus aureus [2]
  MIC: 1 µg/mL (≈ 3.43 µM)
Escherichia coli
  MIC: 128 µg/mL (≈ 439 µM)

## CNC1=NC(=O)C(C(C)c2c[nH]c3cccc(C)c23)S1 (racemic)
Staphylococcus aureus [1]
  MIC: > 128 µg/mL
Staphylococcus aureus [2]
  MIC: 4 µg/mL (≈ 13.9 µM)
Escherichia coli
  MIC: > 128 µg/mL

## CNC1=NC(=O)C(C(C)c2c[nH]c3c(C)cccc23)O1 (racemic)
Staphylococcus aureus [1]
  MIC: > 128 µg/mL
Staphylococcus aureus [2]
  MIC: > 128 µg/mL
Escherichia coli
  MIC: > 128 µg/mL

## CCN(CC)c1cccc2[nH]cc(C(C)C3OC(NC)=NC3=O)c12 (racemic)
Staphylococcus aureus [1]
  MIC: > 128 µg/mL
Staphylococcus aureus [2]
  MIC: 64 µg/mL (≈ 195 µM)
Escherichia coli
  MIC: > 128 µg/mL

## CNC1=NC(=O)C(C(C)c2c[nH]c3ccccc23)S1 (racemic)
Staphylococcus aureus [1]
  MIC: > 128 µg/mL
Staphylococcus aureus [2]
  MIC: 4 µg/mL (≈ 14.6 µM)
Escherichia coli
  MIC: > 128 µg/mL

## CNC1=NC(=O)C(C(C)c2c[nH]c3cccc(Br)c23)S1 (racemic)
Staphylococcus aureus [1]
  MIC: > 128 µg/mL
Staphylococcus aureus [2]
  MIC: 16 µg/mL (≈ 45.4 µM)
Escherichia coli
  MIC: > 128 µg/mL

## CC(c1c[nH]c2cccc(F)c12)C1OC(N)=NC1=O (racemic)
Staphylococcus aureus [1]
  MIC: > 128 µg/mL
Staphylococcus aureus [2]
  MIC: 16 µg/mL (≈ 61.2 µM)
Escherichia coli
  MIC: > 128 µg/mL

— ChEMBL document CHEMBL5104172, “Design, synthesis, and antibacterial activity of derivatives of Tryptophanyl-tRNA synthetase inhibitor indolmycin” (Eur J Med Chem, 2022)
